Results on 21 compounds are retold here after PubChem BioAssay AID206 (DTP/NCI, 2004).

Molecules are shown by their SMILES. Values joined by “and” are separate entries in the source; they are usually repeats but may differ in a detail not shown here. Equal entries are not always repeated. Inconclusive results are not listed.

This test has as its system nude mice, HT29 intrarenal xenograft, tumor weight T/C. Put plainly: NCI In Vivo Anticancer Drug Screen. Data for tumor model HT29;CX-1 Human Adenocarcinoma (MER+) (intrarenal inoculation) in NU/NU Swiss (nude) mice. The conditions noted are these: endpoint: mean tumor weight change, higher = larger tumour. The gist of the method:
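T/C = treated-group value ÷ vehicle-group value, using tumor size or survival.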

[1] abbreviates: dose: 150.0 mg/kg/injection, schedule: Q04DX004 (sc), vehicle: saline with Tween-80.
[2] abbreviates: dose: 300.0 mg/kg/injection, schedule: Q04DX004 (sc), vehicle: saline with Tween-80.
[3] abbreviates: dose: 1200.0 mg/kg/injection, schedule: Q04DX004 (sc), vehicle: saline with Tween-80.
Setting [4] is: dose: 600.0 mg/kg/injection, schedule: Q04DX004 (sc), vehicle: Klucel (hydroxypropylcellulose) (HPC).
Where [5] appears, read: dose: 1200.0 mg/kg/injection, schedule: Q04DX004 (sc), vehicle: Klucel (hydroxypropylcellulose) (HPC).
Setting [6] is: dose: 200.0 mg/kg/injection, schedule: Q04DX004 (sc), vehicle: water.
[7] abbreviates: dose: 2.0 mg/kg/injection, schedule: Q01DX010 (sc), vehicle: saline.
Setting [8] is: dose: 4.0 mg/kg/injection, schedule: Q01DX010 (sc), vehicle: saline.
The mark [9] stands for this setting: dose: 2400.0 mg/kg/injection, schedule: Q04DX004 (sc), vehicle: saline with Tween-80.
[10] abbreviates: dose: 600.0 mg/kg/injection, schedule: Q04DX004 (sc), vehicle: saline with Tween-80.

Regarding `Cc1ccc(S(=O)(=O)NC(=S)S)cc1`, the T/C is 110 % of control (dose: 100.0 mg/kg/injection, schedule: Q01DX010 (sc), vehicle: saline with Tween-80) and 191 % of control (dose: 200.0 mg/kg/injection, schedule: Q01DX010 (sc), vehicle: saline with Tween-80).
For `c1cc(OCC2CO2)ccc1OCC1CO1` (configuration not stated), the T/C was 79 % of control (dose: 200.0 mg/kg/injection, schedule: Q04DX004 (sc), vehicle: saline with Tween-80) and 106 % of control (dose: 400.0 mg/kg/injection, schedule: Q04DX004 (sc), vehicle: saline with Tween-80).
Turning to `C[n+]1c(/C=C\C=C\N2CCCCC2)sc2ccccc21`, the T/C (dose: 1.5 mg/kg/injection, schedule: Q04DX004 (sc), vehicle: Klucel (hydroxypropylcellulose) (HPC)) is 84 % of control and the T/C (dose: 3.0 mg/kg/injection, schedule: Q04DX004 (sc), vehicle: Klucel (hydroxypropylcellulose) (HPC)) is 41 % of control.
Consider `CCCCCCCCCCCCCCCCCC(=O)Nc1ccn(C2OC(CO)C(O)C2O)c(=O)n1` (configuration not stated), for which the T/C runs as follows: under setting [1], 49 % of control and 61 % of control; under setting [2], 67 % of control and 89 % of control; under setting [3], 14 % of control and 32 % of control.
As to `COC1=C2C[C@@H](C)C[C@@H](OC)[C@@H](O)[C@H](C)/C=C(\C)[C@@H](OC(N)=O)[C@H](OC)/C=C\C=C(/C)C(=O)NC(=CC1=O)C2=O`, the T/C was 110 % of control (dose: 2.0 mg/kg/injection, schedule: Q04DX004 (sc), vehicle: saline); 113 % of control (dose: 4.0 mg/kg/injection, schedule: Q04DX004 (sc), vehicle: saline); 54 % of control (dose: 8.0 mg/kg/injection, schedule: Q04DX004 (sc), vehicle: saline); 59 % of control (dose: 16.0 mg/kg/injection, schedule: Q04DX004 (sc), vehicle: saline).
As for `Cc1ccc(C2NC(=O)c3ccccc3N2)s1` (configuration not stated), the T/C reads like this: under setting [4], 101 % of control; under setting [5], 95 % of control; (dose: 2400.0 mg/kg/injection, schedule: Q04DX004 (sc), vehicle: Klucel (hydroxypropylcellulose) (HPC)) 96 % of control; (dose: 4800.0 mg/kg/injection, schedule: Q04DX004 (sc), vehicle: Klucel (hydroxypropylcellulose) (HPC)) 92 % of control.
In the case of `COC1OC(CO)C(O)C(NC(=O)N(C)N=O)C1O` (configuration not stated), the T/C reads like this: (dose: 225.0 mg/kg/injection, schedule: Q04DX004 (sc), vehicle: suspension in saline) 104 % of control; (dose: 450.0 mg/kg/injection, schedule: Q04DX004 (sc), vehicle: suspension in saline) 95 % of control; (dose: 900.0 mg/kg/injection, schedule: Q04DX004 (sc), vehicle: suspension in saline) 33 % of control.
With `C[n+]1cccc(NC(=O)c2ccc(NC(=O)C34CCC(C(=O)Nc5ccc(C(=O)Nc6ccc[n+](C)c6)cc5)(CC3)CC4)cc2)c1`, the T/C (dose: 12.5 mg/kg/injection, schedule: Q04DX004 (sc), vehicle: saline with Tween-80) was 118 % of control; the T/C (dose: 25.0 mg/kg/injection, schedule: Q04DX004 (sc), vehicle: saline with Tween-80) was 47 % of control; the T/C (dose: 50.0 mg/kg/injection, schedule: Q04DX004 (sc), vehicle: saline with Tween-80) was 7 % of control and 21 % of control.
As for `C1CCC2C[N-]CCC2C1.C1CCC2C[N-]CCC2C1.C1CCC2C[N-]CCC2C1.C1CCC2C[N-]CCC2C1.[Cl][Rh][Cl]` (configuration not stated), the T/C (dose: 9.0 mg/kg/injection, schedule: Q04DX004 (sc), vehicle: saline with Tween-80) was 96 % of control; the T/C (dose: 18.0 mg/kg/injection, schedule: Q04DX004 (sc), vehicle: saline with Tween-80) was 82 % of control; the T/C (dose: 36.0 mg/kg/injection, schedule: Q04DX004 (sc), vehicle: saline with Tween-80) is 84 % of control; the T/C (dose: 72.0 mg/kg/injection, schedule: Q04DX004 (sc), vehicle: saline with Tween-80) was 73 % of control.
With `CC1(C)OC(=O)N(CO)C1=O`, the T/C was 95 % of control (dose: 25.0 mg/kg/injection, schedule: Q01DX010 (sc), vehicle: saline); 118 % of control (dose: 50.0 mg/kg/injection, schedule: Q01DX010 (sc), vehicle: saline); 194 % of control (dose: 200.0 mg/kg/injection, schedule: Q01DX010 (sc), vehicle: saline).
`CC(=O)NC(C=O)OCC=O` (configuration not stated): the T/C was 106 % of control (dose: 100.0 mg/kg/injection, schedule: Q04DX004 (sc), vehicle: water) and 121 % of control under setting [6].
Regarding `COc1cc([C@@H]2c3cc4c(c(O)c3C[C@H]3COC(=O)[C@@H]32)OCO4)cc(OC)c1OC`, the T/C is, setting by setting: under setting [7], 46 % of control; under setting [8], 58 % of control; (dose: 8.0 mg/kg/injection, schedule: Q01DX010 (sc), vehicle: saline) 25 % of control.
In the case of `Nc1nncs1`, the T/C reads like this: (dose: 3.13 mg/kg/injection, schedule: Q01DX010 (sc), vehicle: saline) 97 % of control; (dose: 12.5 mg/kg/injection, schedule: Q01DX010 (sc), vehicle: saline) 84 % of control.
Take `CCOC(=O)c1cn(C)c2c1C(O)=C(C(=O)OC)CC(=O)N2`: the T/C was 95 % of control (dose: 225.0 mg/kg/injection, schedule: Q04DX004 (sc), vehicle: saline with Tween-80); 52 % of control (dose: 450.0 mg/kg/injection, schedule: Q04DX004 (sc), vehicle: saline with Tween-80); 62 % of control (dose: 1800.0 mg/kg/injection, schedule: Q04DX004 (sc), vehicle: saline with Tween-80).
In the case of `O=C(NO)c1ccc(O)c(O)c1`, the T/C runs as follows: under setting [6], 52 % of control; (dose: 400.0 mg/kg/injection, schedule: Q04DX004 (sc), vehicle: water) 86 % of control.
Turning to `COc1cccc(C2NC(=O)c3c(n[nH]c3N)S2)c1O` (configuration not stated), the T/C is, setting by setting: under setting [3], 53 % of control; under setting [9], 117 % of control.
`CCC(=O)N(C)[C@@H](C)C(=O)O[C@H]1CC(=O)N(C)c2cc(cc(OC)c2Cl)C/C(C)=C/C=C[C@@H](OC)[C@@]2(O)C[C@H](OC(=O)N2)[C@@H](C)[C@@H]2O[C@@]12C`: the T/C was 171 % of control (dose: 0.03 mg/kg/injection, schedule: Q01DX010 (sc), vehicle: saline + alcohol); 65 % of control (dose: 0.06 mg/kg/injection, schedule: Q01DX010 (sc), vehicle: saline + alcohol); 120 % of control (dose: 0.07 mg/kg/injection, schedule: Q01DX010 (sc), vehicle: saline + alcohol); 34 % of control (dose: 0.12 mg/kg/injection, schedule: Q01DX010 (sc), vehicle: saline + alcohol); 69 % of control (dose: 0.13 mg/kg/injection, schedule: Q01DX010 (sc), vehicle: saline + alcohol); 2 % of control and 18 % of control (dose: 0.25 mg/kg/injection, schedule: Q01DX010 (sc), vehicle: saline + alcohol).
Consider `O=C1C2CC=CCC2C(=O)N1SC(Cl)(Cl)Cl` (configuration not stated), for which the T/C is 96 % of control (dose: 18.75 mg/kg/injection, schedule: Q04DX004 (sc), vehicle: saline with Tween-80); 88 % of control (dose: 37.5 mg/kg/injection, schedule: Q04DX004 (sc), vehicle: saline with Tween-80); 101 % of control under setting [2]; 71 % of control under setting [10].
As to `CC(=O)ON(C(C)=O)c1ccc(C(N)=O)cc1`, the T/C is 83 % of control (dose: 75.0 mg/kg/injection, schedule: Q04DX004 (sc), vehicle: saline with Tween-80); 77 % of control under setting [1]; 60 % of control under setting [2]; 71 % of control and 78 % of control under setting [10]; 103 % of control under setting [3]; 61 % of control under setting [9].
As to `[O-][n+]1c(CN2CCCCC2)nc2cccc3c2c1-c1ccccc1-3`, the T/C is 274 % of control (dose: 150.0 mg/kg/injection, schedule: Q04DX004 (sc), vehicle: Klucel (hydroxypropylcellulose) (HPC)); 150 % of control (dose: 300.0 mg/kg/injection, schedule: Q04DX004 (sc), vehicle: Klucel (hydroxypropylcellulose) (HPC)); 239 % of control under setting [4]; 303 % of control under setting [5].
Take `COc1cc([C@@H]2c3cc4c(c(O)c3C[C@H]3COC(=O)[C@@H]32)OCO4)cc(OC)c1O`: the T/C (dose: 1.0 mg/kg/injection, schedule: Q01DX010 (sc), vehicle: saline) was 92 % of control; the T/C under setting [7] was 75 % of control; the T/C under setting [8] is 106 % of control.
